Measured values reported in publication PMC8596843, “Platinum Cyclooctadiene Complexes with Activity against Gram‐positive Bacteria” (Chemmedchem, 2021).

What was measured:
[1] = tested on: Staphylococcus aureus ATCC 43300 (MRSA); experiment: microbe, parasite or virus in culture; format: cell-based; details: for MIC Sa: CO‐ADD screening
Experimental: (§1) All compounds submitted to CO‐ADD are initially screened against five bacterial strains (Staphylococcus aureus (MRSA), E. coli, Klebsiella pneumoniae, Pseudomonas aeruginosa, Acinetobacter baumannii) and two fungal strains (Candida albicans, Cryptococcus neoformans) at a single concentration (32 μg/mL or 20 μM) performed as a high‐throughput primary screening.[[11], [17a]] Any compounds that show significant growth inhibition against any of the tested strains at this step are then evaluated in a dose‐response assay against these same strains. […]
(§2) Smiles: C1C=CCCC(=CC1)C1=CCCC=CCC1.C[Pt]C.C[Pt]C […]
(§3) ATCC strains were sourced from the American Type Culture Collection and NRS strains from NARSA (Network on Antimicrobial Resistance in Staphylococcus aureus) via BEI Resources (www.beiresources.org), with clinical MSSA and MRSA isolates from Prof Graeme Nimmo, Queensland […]
(§4) Health Central Pathology. […]
(§5) Antibacterial minimum inhibitory concentration (MIC) assay
(§6) Compound Assay Plate Preparation: Compounds were dissolved in DMSO at 10mM (CO-ADD screening) or 4 mM (follow up screening) and were plated in a 2-fold dose response from 20 to 0.156 µM or 200 to 0.006 µM respectively, with a maximum of 0.5% or 1% DMSO, final in the assay […]
(§7) plated in a 2-fold dose response from 200 to 0.006 µM, with a maximum of 1 % DMSO, final in the assay concentration. (in-house screening)
(§8) For all the bacterial assays, each strain was cultured in Cation-adjusted Mueller Hinton broth (CAMHB; Bacto Laboratories 212322) at 37 °C overnight. A sample of each culture was then diluted 40-fold in fresh CAMHB and incubated at 37 °C for 1.5–3 h. The resultant mid-log phase cultures were diluted with CAMHB (CFU mL−1 measured by OD600), then added to each well of the compound-containing plates (384-well non-binding surface (NBS) plates; Corning CLS3640), giving a cell density of 5 × 10^5 CFU mL−1 and a total volume of 50 μL. Plates were covered and incubated at 37 °C for 18 h without shaking. Inhibition of bacterial growth was determined measuring absorbance at 600 nm (OD600), using media only as negative control and bacteria without inhibitors as positive control. MIC values were determined as the lowest concentration at which the growth was inhibited at ≥80%. Colistin sulfate (Sigma C4461) and vancomycin HCl (Sigma 861987) were used as internal controls on each plate for Gram-negative and Gram-positive bacteria, respectively. […]

[2] = tested on: Acinetobacter baumannii ATCC 19606; experiment: Antibacterial MIC assay; format: cell-based; details: CO‐ADD screening
Experimental: as §1, §2, §3, §4, §5, §6, §7, §8

[3] = tested on: Escherichia coli ATCC 25922; experiment: Antibacterial MIC assay; format: cell-based; details: CO‐ADD screening
Experimental: as §1, §2, §3, §4, §5, §6, §7, §8

[4] = tested on: Pseudomonas aeruginosa ATCC 27853; experiment: Antibacterial MIC assay; format: cell-based; details: CO‐ADD screening
Experimental: as §1, §2, §3, §4, §5, §6, §7, §8

[5] = tested on: Klebsiella pneumoniae ATCC 700603 (ESBL SHV‐18)
Experimental: as §1, §2, §3, §4, §5, §6, §7, §8

[6] = tested on: Candida albicans ATCC 90028; experiment: Antifungal MIC (CO-ADD screening); format: cell-based
Experimental: (§9) InChIKey: PHIWIZAHOBWKFJ-HPCBIOCFSA-N
(§10) Health Central Pathology. Candida albicans (ATCC 90028, NCCLS 11), Cryptococcus neoformans
as §5
(§11) concentration. (in-house screening)
(§12) Bacto Laboratories 212322) at 37 °C overnight.

[7] = tested on: Cryptococcus neoformans H99 ATCC 208821; experiment: Antifungal MIC (CO-ADD screening); format: cell-based
Experimental: as §9, §10, §5, §11, §12

[8] = tested on: HEK-293 ATCC CRL-1573 human embryonic kidney cells; format: cell-based
Experimental: As part of the CO‐ADD screening, all compounds that show any activity against a microbial strain are evaluated for their cytotoxicity against human embryonic kidney cells (HEK‐293) and for haemolysis against human red blood cells. None of the compounds tested for cytotoxicity (Pt1‐9 and Pd1) caused any significant cell death up to concentrations of 100 μM. […] We have also observed higher IC50 values for the methylated complexes Pt3 and Pt4 against HeLa cells in previous work.[16] […]
(§13) inhibitors as positive control.
(§14) Tamoxifen (Sigma T5648) was used
(§15) as internal control on each plate.
in a Neubauer haemocytometer. […]

human red blood cells = experiment: Haemolysis assay; format: cell-based; details: for Haemolysis HC10: concentration inducing 10 % haemolysis; for Haemolysis HC50: concentration inducing 50 % haemolysis
Experimental: As part of the CO‐ADD screening, all compounds that show any activity against a microbial strain are evaluated for their cytotoxicity against human embryonic kidney cells (HEK‐293) and for haemolysis against human red blood cells. None of the compounds tested for cytotoxicity (Pt1‐9 and Pd1) caused any significant cell death up to concentrations of 100 μM. […] We have also observed higher IC50 values for the methylated complexes Pt3 and Pt4 against HeLa cells in previous work.[16]
(§16) The resultant mid-log phase cultures were diluted
(§17) Gram-negative and Gram-positive bacteria, respectively.
(§18) final concentration range of 0.8 – 100 µM.
as §13, §14, §15
in a Neubauer haemocytometer.
incubated for 1 h at 37 °C, without shaking.
HC10 and HC50 (concentration at which 10%
for top, bottom and slope using Prism 8. […]

[9] = tested on: Staphylococcus aureus ATCC 25923, MSSA; experiment: Antibacterial MIC assay, Gram-positive panel; format: cell-based; details: Table S1 panel; n=4
Source text: (§19) Bis(dimethyl-η4)-((1Z,1'E,5Z,5'E)-(1,1'-bi(cyclooctadiene))diplatinum(II) (Pt14) Smiles: C1C=CCCC(=CC1)C1=CCCC=CCC1.C[Pt]C.C[Pt]C
as §9
(§20) Link to selected data that was repeated to approve the identity of the compounds: https://dx.doi.org/10.14272/PHIWIZAHOBWKFJ-HPCBIOCFSA-N.1
as §3, §4, §5, §6, §7, §8

[10] = tested on: Staphylococcus aureus VRS 1, VRSA (VanA); experiment: Antibacterial MIC assay, Gram-positive panel; format: cell-based; details: Table S1 panel; n=4
Source text: as §19, §9, §20, §3, §4, §5, §6, §7, §8

[11] = tested on: Enterococcus faecalis ATCC 29212, control strain; experiment: Antibacterial MIC assay, Gram-positive panel; format: cell-based; details: Table S1 panel; n=4
Experimental: as §2, §3, §4, §5, §6, §7, §8

[12] = tested on: Enterococcus faecalis Clinical Isolate, VRE (VanB); experiment: Antibacterial MIC assay, Gram-positive panel; format: cell-based; details: Table S1 panel; n=4
Experimental: as §2, §3, §4, §5, §6, §7, §8

[13] = tested on: Enterococcus faecium ATCC 35667, type strain; experiment: Antibacterial MIC assay, Gram-positive panel; format: cell-based; details: Table S1 panel; n=4
Experimental: as §2, §3, §4, §5, §6, §7, §8

[14] = tested on: Enterococcus faecium ATCC 51559, MDR, VRE (VanA); experiment: Antibacterial MIC assay, Gram-positive panel; format: cell-based; details: Table S1 panel; n=2
Experimental: as §2, §3, §4, §5, §6, §7, §8

[15] = tested on: Enterococcus faecium Clinical Isolate, VRE (VanA); experiment: Antibacterial MIC assay, Gram-positive panel; format: cell-based; details: Table S1 panel; n=4
Experimental: as §2, §3, §4, §5, §6, §7, §8

[16] = tested on: Staphylococcus epidermidis ATCC 14990, type strain; experiment: Antibacterial MIC assay, Gram-positive panel; format: cell-based; details: Table S1 panel; n=4
Experimental: as §2, §3, §4, §5, §6, §7, §8

[17] = tested on: Staphylococcus epidermidis NRS 60, VISE; experiment: Antibacterial MIC assay, Gram-positive panel; format: cell-based; details: Table S1 panel; n=4
Experimental: as §2, §3, §4, §5, §6, §7, §8

[18] = tested on: B. subtilis ATCC 6051 type strain; experiment: MIC in the presence of human serum (serum reversal); format: cell-based, Bacillus subtilis; details: 10% serum
Source text: (§21) To obtain some initial insight into the apparent disparity between in vitro and in vivo results, we repeated the MIC experiments against four selected Gram‐positive strains in the presence of 10 % or 50 % human serum (Table S3). Pt1 and Pt2 maintained some antibacterial activity against B. subtilis in the presence of 10 % serum, but a complete loss of activity was observed against MRSA and GISA (50 % serum), and VRE (10 % serum). […] Systemic administration is therefore unlikely to be a suitable administration route for this class of compounds unless an alternative formulation that can prevent serum binding (e. g. by lipid or nanoparticle encapsulation) can be found. […] Further in vivo studies should therefore focus on more suitable disease models. […]
as §5, §11, §12, §16, §17, §18
(§22) inhibitors as positive control. […]

[19] = tested on: S. aureus ATCC 43300 MRSA; experiment: as above; format: cell-based, Staphylococcus aureus; details: 50% serum
Source text: as §21, §5, §11, §12, §16, §17, §18, §22

S. aureus NRS 17 GISA = experiment: as above; format: cell-based, Staphylococcus aureus; details: 50% serum
Source text: as §21, §5, §11, §12, §16, §17, §18, §22

[20] = tested on: E. faecium ATCC 51559 MDR, VRE; experiment: as above; format: cell-based, Enterococcus faecium; details: 10% serum
Source text: as §21, §5, §11, §12, §16, §17, §18, §22

HT‐29 colon carcinoma = tested on: HT‐29 colon carcinoma; parameters: method as in earlier work; details: ref 14a, read-out: IC50 cytotoxicity; cited from earlier work
[21] = tested on: MCF‐7 breast cancer cells; parameters: method as in earlier work; details: ref 14a, read-out: IC50 cytotoxicity; cited from earlier work
[22] = tested on: Staphylococcus aureus NRS 17, GISA; experiment: Antibacterial MIC assay, Gram-positive panel; format: cell-based; details: Table S1 panel; n=2
Experimental: as §2, §3, §4, §5, §6, §7, §8

[23] = tested on: E. coli lpxC (non‐efficient lipid A production mutant); experiment: MIC against E. coli membrane mutants; format: cell-based, Escherichia coli; details: Table S2
Experimental: as §5, §11, §12, §16, §17, §18, §22

[24] = tested on: E. coli tolC (efflux pump deficient); experiment: MIC against E. coli membrane mutants; format: cell-based, Escherichia coli; details: Table S2
Experimental: as §5, §11, §12, §16, §17, §18, §22

Compound | MIC Sa [1] | MIC Ab [2] | MIC Ec [3] | MIC Pa [4] | MIC Kp [5] | MIC Ca [6] | MIC Cn [7] | CC50 [8] | Haemolysis HC10 (human red blood cells) | Haemolysis HC50 (human red blood cells) | MIC [9] | MIC [10] | MIC [11] | MIC [12] | MIC [13] | MIC [14] | MIC [15] | MIC [16] | MIC [17] | MIC in the presence of human serum [18] | further results
C1=CCCC=CCC1.[CH3][Pt][Cl] [Pt4] | >20 µM | >20 µM | >20 µM | >20 µM | >20 µM | 5 to 10 µM | 10 to 20 µM | > 100 µM | 10.23 µM | 52.11 µM | 100 µM | > 200 µM | > 200 µM | > 200 µM | > 200 µM | 25 µM | 200 µM | 50 µM | 100 µM | > 200 µM | MIC ([1]; Table S1 panel, n=2): 6.25 µM; MIC in the presence of human serum [19]: > 200 µM; MIC in the presence of human serum (S. aureus NRS 17 GISA): > 200 µM; MIC in the presence of human serum [20]: > 200 µM; IC50 (HT‐29 colon carcinoma): 8.3 ± 3 µM; IC50 [21]: 11.2 ± 1.4 µM
C1=CCCC=CCC1.COc1cc[c]([Pt][CH3])cc1 [Pt5] | >20 µM | >20 µM | >20 µM | >20 µM | >20 µM | 10 µM | 20 µM | > 100 µM | 88.43 µM | >100 µM | 100 µM | 200 µM | > 200 µM | > 200 µM | > 200 µM | 200 µM | 200 µM | 50 µM | 50 µM | > 200 µM | MIC [22]: 100 µM; MIC E. coli lpxC [23]: > 200 µM; MIC E. coli TolC [24]: > 200 µM; MIC in the presence of human serum [19]: > 200 µM; MIC in the presence of human serum (S. aureus NRS 17 GISA): > 200 µM; MIC in the presence of human serum [20]: > 200 µM
